We go through 86 compounds from a melting point compilation (Tetko et al.; mined from patent text by program, amines drawn as free bases though some values may be those of a salt).

Structures are written as SMILES. A value given as a limit tells only on which side of the number the result lay.

Take `N#CC(C#N)=C(Cl)c1ccc(C(Cl)=C(C#N)C#N)cc1`: the melting point was in the range of 177 to 179 °C.
In the case of `O=C(O)Cc1c(C(=O)c2ccc(Cl)cc2)[nH]c2cc(Cl)ccc12` it was 181 to 183 °C; in that of `CCOC(=O)N=C1N(c2c(C)cccc2C)CC(C)N1c1c(C)cccc1C` (stereo unspecified), 124 to 125 °C; in that of `COc1ccc2cc(CN(C)C(=O)c3cn(C)c4ccccc34)ccc2c1Br`, 168 to 169 °C.
`NS(=O)(=O)c1ccc(-n2nc(C(F)(F)F)cc2OS(=O)(=O)C(F)(F)F)cc1` came in with a melting point of 114 to 115 °C.
To `O=C1OC(CCI)C(O)=C1OCc1ccccc1` (stereo unspecified) belongs 101 to 104 °C.
`c1ccc(-c2cnc3nncn3c2)cc1` displayed a melting point of 231 °C.
Regarding `CCOC(=O)CN1CC(=O)N(C)c2ccc([N+](=O)[O-])cc2C1=O`, the melting point fell in the range of 129 to 130 °C.
In the case of `O=Cc1cc(-c2ccc(O)cc2)c2occc2c1` it was 154 to 155 °C; in that of `Brc1ccc2ccn(Cc3ccccc3)c2c1`, 85 to 88 °C.
In the case of `Cc1ccc([N+](=O)[O-])cc1Nc1ncc(-c2ccc(C#N)cc2)o1` it was greater than 228 °C.
To `CC1(C)Oc2ccc(C#N)cc2C(OC(=O)C2CCCN2S(=O)(=O)c2cccc([N+](=O)[O-])c2)C1Br` (stereo unspecified) belongs 171 to 174 °C; to `CCCSc1nc(N)n(-c2nnc(-c3ccccc3O)s2)n1`, 195 to 198 °C; to `COc1ccc(C2=NC(NC(=O)Nc3ccc(C(=O)c4ccccc4)cc3)c3nnc(C)n3-c3ccccc32)cc1` (stereo unspecified), 225 °C.
`O=[N+]([O-])N=c1ccccn1Cc1ccc(Cl)nc1` showed a melting point of 209 to 212 °C.
To `CC(=O)OC1=CCc2c(Oc3ccc(NC(=O)c4ccc(Cl)c(Cl)c4)cn3)cccc21` belongs 161 to 164 °C.
For `CC(C)(OCCOCc1nn(Cc2ccccc2)c2ccccc12)C(=O)O`, the melting point lay in the range of 94 to 95 °C.
For the compound `Cc1csc2c1S(=O)(=O)N(C)C(C(=O)Nc1cccccc1=O)=C2O`, the melting point was 229 to 233 °C.
`CC(C)(SCC(=O)O)c1ccc2c(c1)OCO2`: the melting point lay within 78.5 to 80 °C.
In the case of `C=CCN1CC(=O)N(c2c(C)cccc2C)C1=S` it was 43 to 46 °C.
To `Cn1c(=O)ccc2cc(COc3cccc(C4(C)CCOCC4)c3)ccc21` belongs 107 to 108 °C; to `Cc1ccc(S(=O)(=O)N2CCCC2c2ccc(C)cc2C)cc1` (racemic), 130 °C; to `O=[N+]([O-])c1cc(Cl)ccc1NCCO`, 98 to 100 °C.
To `Cc1c(C#N)c(-c2ccc(C#N)cc2)c(C)n1Cc1cnc(Cl)c(C(O)C(F)(F)F)c1` (stereo unspecified) belongs 200 to 201 °C; to `CCN(CC(C)(C)C)c1nc2c(cc1CN(Cc1cc(C(F)(F)F)cc(C(F)(F)F)c1)c1nnn(C)n1)c(C)nn2C`, 72 to 73 °C; to `Cn1cnc2nc(-c3ccc(-c4ccccc4)cc3)nn2c1=S`, 297 to 299 °C.
The compound `O=C(Nc1nnn[nH]1)c1cnc2sc3ccc(F)cc3n2c1=O` yielded a melting point greater than 300 °C.
To `COc1ccc(-c2nc(SCC=O)sc2-c2ccc(OC)cc2)cc1` belongs 75 to 76 °C; to `COc1ccc2c(c1)OCC1CN(C(=O)c3cccnc3)N=C21` (stereo unspecified), 145 to 147 °C.
In the case of `Cc1nc2cc(NC(=O)c3cc4cccnc4n3Cc3ccncc3)ccc2s1` it was 211 to 236 °C; in that of `N#Cc1cn(-c2ccccn2)nc1-c1ccc([N+](=O)[O-])o1`, 207 to 208 °C; in that of `CC(C)Cc1ccc(C(C)C(N)=O)cc1` (stereo unspecified), 84 to 86 °C.
To `NC(=O)C1=CCNCC1` belongs 104 to 106 °C; to `COc1ccc(C(=O)C(NC(=O)CCCCCBr)c2ccc(OC)cc2)cc1` (stereo unspecified), 93 °C; to `CC(O)CN1CCCC(c2cccs2)=N1` (stereo unspecified), 74 to 77 °C.
With `COC(=O)c1ccc(-c2nnc(-c3ccccc3)o2)cc1`, the melting point lay in the range of 172 to 173 °C.
The compound `COc1ccc(C(=O)c2cc([N+](=O)[O-])ccc2N2CCC(C)CC2)cc1` displayed a melting point of 119 °C.
In the case of `CC(=O)OCC1OC(n2c(Cl)nc3ccc(Cl)cc32)C(OC(C)=O)C1OC(C)=O` (stereo unspecified) it was 155 to 157 °C; in that of `Cc1cc(C)cc(C(=O)N2CCN(C(=O)CN(CCO)C3CCN(Cc4ccccc4)CC3)C(c3ccc(Cl)c(Cl)c3)C2)c1` (racemic), 70 to 73 °C; in that of `CCCCNC(=NC#N)Nc1ccc(C2=NNC(=O)CC2C)cc1` (stereo unspecified), 184 to 186 °C.
In the case of `O=C1c2ccccc2CS(=O)(=O)N1CC(O)CN1CCOCC1` (stereo unspecified), the melting point is 175 to 177 °C.
To `CCCOc1nc(N)c2ncn(C3C=CCCC3)c2n1` (stereo unspecified) belongs 157 to 159 °C; to `COc1ccc2[nH]c(S(=O)(=O)c3ccc(=O)[nH]n3)cc2c1`, greater than 250 °C.
The compound `CN(CCOc1cccc2cc(S(=O)(=O)c3ccccc3)n(C(=O)OC(C)(C)C)c12)C(=O)OC(C)(C)C` showed a melting point of 118 to 120 °C.
To `O=C(Nc1ccc(Cl)cn1)c1cc(Cl)ccc1NCC1CCN(C2CCSCC2)CC1` belongs 200 to 203 °C; to `COc1ccc2ccc(N3C(=O)c4ccccc4C3OCC(=O)NCCN(C)C)nc2n1` (stereo unspecified), 146 °C; to `CN(C(=O)C1CC1)c1cccc(-c2ccnc3c(C(=O)c4ccccc4)cnn23)c1`, 168 to 170 °C.
In the case of `O=C1CCCCCC1C(C[N+](=O)[O-])c1ccc(OCc2ccccc2)cc1` (racemic) it was 120 to 121 °C; in that of `CC(=O)N1c2ccc(-c3ccc(C(=O)O)cc3)cc2C(Nc2ccccc2)CC1C` (stereo unspecified), 246 °C; in that of `COc1cnc(OC)n2nc(NS(=O)(=O)c3c(F)cccc3C(F)(F)F)nc12`, 201 to 203 °C.
Regarding `CCOC(=O)/C=C/c1cn(CC)nc1OCc1ccc(OCc2nc(-c3ccco3)oc2C)c(OC)c1`, the melting point was in the range of 149 to 150 °C.
Compound `CCNc1nc(Cl)c(Br)c(NC2CC2)n1` yielded a melting point of 100 to 101 °C.
In the case of `CCOC(=O)c1c(SC)n(-c2ccc(F)cc2)c2cc(F)c(F)cc2c1=O` it was 167 °C.
In turn, `CC(=NO)c1ccc(OCc2ccccc2)c(CCCc2ccc(C(=O)NCCO)cc2)c1` showed a melting point of 131 to 132 °C.
To `CC(C#N)(c1ccc(Cl)c(C(F)(F)F)c1)c1ccc([N+](=O)[O-])cc1Cl` (stereo unspecified) belongs 162 °C.
Compound `CN(C)C(=O)c1nnc(S)o1` had a melting point of 185 to 187 °C.
The compound `CC(C)c1cc(C(C)C)c(-c2csc(Br)n2)c(C(C)C)c1` gave a melting point of 236 °C.
To `Nc1sc2c(c1C(=O)c1ccccc1)CCN(CCc1ccc([N+](=O)[O-])cc1)C2` belongs 89 to 91 °C; to `CCOC(=O)Oc1cc2c(s1)CCN([C@H](C(=O)OC)c1ccccc1Cl)C2`, 42 to 44 °C; to `C=C(C(=O)c1c(OC)ccc(-c2cccs2)c1OC)c1ccc(C(=O)O)cc1`, 193 to 195 °C.
To `CC(C)C(O)c1cccc(S(N)(=O)=O)c1` (stereo unspecified) belongs 152 to 153 °C; to `Cn1c(C(F)(F)C(F)(F)F)cc(=O)n(-c2cc(C(=O)O)c(Cl)cc2F)c1=O`, 229 to 231 °C; to `CC(=O)Nc1c(C(=O)C(C)(C)C)[nH]c2cc(Cl)ccc12`, 190 to 193 °C.
To `CC(=O)Nc1ncc(C23CCCN(CC2)C3)o1` (stereo unspecified) belongs 142 to 143 °C; to `CC(C)n1c2ccccc2c2cc(NC(=O)c3ccccc3Cl)ccc21`, 195 °C.
Consider `CCCc1ccc(-c2[nH]nc3c2C(=O)c2c(NC(C)=O)cccc2-3)cc1`, for which the melting point came to 269 °C.
In the case of `C1=C(c2ccc3c(c2)OCCO3)CCC(N2CCN(Cc3ccccc3)CC2)C1` (stereo unspecified) it was 132 to 133 °C; in that of `COc1cc(C(=O)N2Cc3ccc(C(=O)NCc4ccccc4C)n3Cc3ccccc32)ccc1-c1ccccc1C`, 204 °C.
Compound `COc1ccc(-c2[nH]nc3c2C(=O)c2c(NC(=O)CN4CCC(N)CC4)cccc2-3)cc1` returned a melting point greater than 300 °C.
In the case of `CC12CCC(O)CC1=CCC1C2CCC2(C)C(n3cccn3)=CCC12` (stereo unspecified) it was 197 to 199 °C; in that of `OCC1OC(OCc2ccccc2)C(OCc2ccccc2)C1O` (stereo unspecified), 73 to 74 °C; in that of `Cc1cc(-n2ccnc2)c2cccc(OCc3c(Cl)ccc(S(=O)(=O)N4CCC[C@H]4C(=O)NCC4CCN(C(=O)c5ccccc5)CC4)c3Cl)c2n1`, 102 °C.
For the compound `CCOC(=O)/C=C/C=C/c1cccc(-c2c(CC(=O)Nc3ccc(F)cc3C(F)(F)F)c(=O)oc3cc(Cl)c(C)cc23)c1`, the melting point lay within 216 to 218 °C.
In the case of `CCCCCCCCCCCCCCc1ccc(C(=O)OC)cc1` it was 28 to 29 °C; in that of `N=C(N)NCc1cc(CCC(=O)O)no1`, greater than 297 °C; in that of `COC(=O)c1cc(OC(C)=O)c2cc(Br)ccc2c1C`, 78 °C.
To `O=C(O)C1C=Nc2c(ccc3ncccc23)N1O` (stereo unspecified) belongs greater than 300 °C; to `COc1cc(F)ccc1-c1c(/C=C/C(=O)O)c2ccccc2c(=O)n1C(C)C`, 265 to 267 °C; to `CCCc1c(OCCCCc2ccc3c(Cl)c(OC)c(OC)c(Cl)c3c2)ccc(C(=O)OCc2ccccc2)c1O`, 66 to 68 °C.
Compound `Cc1cc(Cl)ccc1NC(=N)Nc1ncccc1OCc1c(F)cccc1Cl` displayed a melting point of 155 to 156 °C.
In the case of `O=C(NCc1ccccc1)NC(Cc1ccccc1)C(=O)O` (stereo unspecified) it was 115 to 117 °C; in that of `CN(C)C=Cc1cc(-n2cncn2)ncc1[N+](=O)[O-]`, 225 to 228 °C.
To `CCOC(=O)c1cn(Cc2ccccc2)nc1NC(=O)NC1CCCCC1` belongs 94 to 95 °C; to `CCCCCCCCCN(C[C@H]1CCC[C@H](CN(CCCCCCCCC)C(=O)Nc2ccc(N(C)C)cc2)C1)C(=O)Nc1ccc(N(C)C)cc1` (relative stereo), 116 to 120 °C.
In the case of `CCN(CC)c1nc2ncnn2c2c1cnc1c2cnn1CC` it was 215 to 217 °C; in that of `O=C(CCCc1ccccc1)N[C@H](Cc1ccc(F)cc1)[C@@H](O)c1ccc(C(F)(F)F)cc1` (racemic), 155 to 156 °C.

By melting point is commonly meant the temperature of the solid-liquid transition.
